Source: the supplement of paper PMC10307832

What was measured:
Assay in all cases: relative viability (nuclei count vs DMSO), 5 days (fraction); higher = more cells survive
Crenolanib + Vorinostat = compound: CC1(COc2ccc3c(c2)ncn3-c2ccc3cccc(N4CCC(N)CC4)c3n2)COC1 [Crenolanib] + O=C(CCCCCCC(=O)Nc1ccccc1)NO [Vorinostat] (partner 1 µM)
Summary of the method: (§1)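 Cells from lung cancer lines were seeded into 1536-well plates and, one day later, dosed by pin tool. Treatments were either a single drug or a fixed dose of an anchor drug with five library-drug doses (not always all listed) in √10 steps. After 5 days, nuclei were stained in a one-step fixation (final 0.05% Triton X-100, 1% formaldehyde, 1 ug/ml Hoechst) and counted on 4× images, and relative viability is the treated-to-vehicle nuclei ratio, as the median of duplicate plates.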

Tivantinib + Palbociclib = compound: O=C1NC(=O)[C@@H](c2cn3c4c(cccc24)CCC3)[C@@H]1c1c[nH]c2ccccc12 [Tivantinib] + CC(=O)c1c(C)c2cnc(Nc3ccc(N4CCNCC4)cn3)nc2n(C2CCCC2)c1=O [Palbociclib] (partner 0.5 µM)
Summary of the method: as §1

Tivantinib + OSI-027 = compound: O=C1NC(=O)[C@@H](c2cn3c4c(cccc24)CCC3)[C@@H]1c1c[nH]c2ccccc12 [Tivantinib] + COc1cccc2cc(-c3nc([C@H]4CC[C@H](C(=O)O)CC4)n4ncnc(N)c34)[nH]c12 [OSI-027] (partner 0.5 µM)
Summary of the method: as §1

Tivantinib + Vorinostat = compound: O=C1NC(=O)[C@@H](c2cn3c4c(cccc24)CCC3)[C@@H]1c1c[nH]c2ccccc12 [Tivantinib] + O=C(CCCCCCC(=O)Nc1ccccc1)NO [Vorinostat] (partner 1 µM)
Summary of the method: as §1

UMC-11 was tested, and the relative viability (Crenolanib + Vorinostat; first compound 0.01 µM) was 0.383, the relative viability (Crenolanib + Vorinostat; first compound 0.03162 µM) was 0.453 and the relative viability (Crenolanib + Vorinostat; first compound 0.1 µM) was 0.389. For the same cell line, the relative viability (Crenolanib + Vorinostat; first compound 0.3162 µM) was 0.363, the relative viability (Crenolanib + Vorinostat; first compound 1 µM) was 0.374 and the relative viability (Tivantinib + Palbociclib; first compound 0.01 µM) was 0.354. The relative viability (Tivantinib + Palbociclib; first compound 0.03162 µM) was 0.332, the relative viability (Tivantinib + Palbociclib; first compound 0.1 µM) was 0.314 and the relative viability (Tivantinib + Palbociclib; first compound 0.3162 µM) was 0.311. It also gave a relative viability (Tivantinib + OSI-027; first compound 0.01 µM) of 0.451, a relative viability (Tivantinib + OSI-027; first compound 0.03162 µM) of 0.456 and a relative viability (Tivantinib + OSI-027; first compound 0.1 µM) of 0.465. It also gave a relative viability (Tivantinib + OSI-027; first compound 0.3162 µM) of 0.521, a relative viability (Tivantinib + Vorinostat; first compound 0.01 µM) of 0.383 and a relative viability (Tivantinib + Vorinostat; first compound 0.03162 µM) of 0.392. It also gave a relative viability (Tivantinib + Vorinostat; first compound 0.1 µM) of 0.328 and a relative viability (Tivantinib + Vorinostat; first compound 0.3162 µM) of 0.385.
